This passage reports IC50 results from patent US9440952B2, “Compounds inhibiting leucine-rich repeat kinase enzyme activity” (Merck Sharp & Dohme Corp., priority 2013, dated 2016).

This assay deals with T1, LRRK2(G2019S mutation, GST-LRRK2(amino acids 970-2527)) (Homo sapiens, UniProt Q5S007, G2019S).
T1 construct: GST-LRRK2(amino acids 970-2527); GST (N); purchased Life Technologies Corporation
Nature of the assay: LRRK2 Km ATP LanthaScreen Assay. It is filed as biochemical. The essentials: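 IC50 values are means of several runs in the Km-ATP LanthaScreen format, analysed by curve fitting of the LanthaScreen read-out.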
On the technique in general: Time-resolved FRET reads energy transfer from a long-lived donor to a nearby acceptor.

Where [1] appears, read: Km ATP LanthaScreen Assay, LRRK2 G2019S, mean IC50 values, read-out: LRRK2 IC50.
The mark [2] stands for this setting: Km ATP LanthaScreen, mean IC50 of several tests, read-out: LRRK2 IC50.
Setting [3] is: Km ATP LanthaScreen Assay; LRRK2 G2019S; mean IC50 values; Examples 185-215; read-out: LRRK2 IC5).

Read-outs that look alike come from different tables or passages of the source. A value given as a limit tells only on which side of the number the result lay.

T1 sequence (Q5S007 970-2527 G2019S): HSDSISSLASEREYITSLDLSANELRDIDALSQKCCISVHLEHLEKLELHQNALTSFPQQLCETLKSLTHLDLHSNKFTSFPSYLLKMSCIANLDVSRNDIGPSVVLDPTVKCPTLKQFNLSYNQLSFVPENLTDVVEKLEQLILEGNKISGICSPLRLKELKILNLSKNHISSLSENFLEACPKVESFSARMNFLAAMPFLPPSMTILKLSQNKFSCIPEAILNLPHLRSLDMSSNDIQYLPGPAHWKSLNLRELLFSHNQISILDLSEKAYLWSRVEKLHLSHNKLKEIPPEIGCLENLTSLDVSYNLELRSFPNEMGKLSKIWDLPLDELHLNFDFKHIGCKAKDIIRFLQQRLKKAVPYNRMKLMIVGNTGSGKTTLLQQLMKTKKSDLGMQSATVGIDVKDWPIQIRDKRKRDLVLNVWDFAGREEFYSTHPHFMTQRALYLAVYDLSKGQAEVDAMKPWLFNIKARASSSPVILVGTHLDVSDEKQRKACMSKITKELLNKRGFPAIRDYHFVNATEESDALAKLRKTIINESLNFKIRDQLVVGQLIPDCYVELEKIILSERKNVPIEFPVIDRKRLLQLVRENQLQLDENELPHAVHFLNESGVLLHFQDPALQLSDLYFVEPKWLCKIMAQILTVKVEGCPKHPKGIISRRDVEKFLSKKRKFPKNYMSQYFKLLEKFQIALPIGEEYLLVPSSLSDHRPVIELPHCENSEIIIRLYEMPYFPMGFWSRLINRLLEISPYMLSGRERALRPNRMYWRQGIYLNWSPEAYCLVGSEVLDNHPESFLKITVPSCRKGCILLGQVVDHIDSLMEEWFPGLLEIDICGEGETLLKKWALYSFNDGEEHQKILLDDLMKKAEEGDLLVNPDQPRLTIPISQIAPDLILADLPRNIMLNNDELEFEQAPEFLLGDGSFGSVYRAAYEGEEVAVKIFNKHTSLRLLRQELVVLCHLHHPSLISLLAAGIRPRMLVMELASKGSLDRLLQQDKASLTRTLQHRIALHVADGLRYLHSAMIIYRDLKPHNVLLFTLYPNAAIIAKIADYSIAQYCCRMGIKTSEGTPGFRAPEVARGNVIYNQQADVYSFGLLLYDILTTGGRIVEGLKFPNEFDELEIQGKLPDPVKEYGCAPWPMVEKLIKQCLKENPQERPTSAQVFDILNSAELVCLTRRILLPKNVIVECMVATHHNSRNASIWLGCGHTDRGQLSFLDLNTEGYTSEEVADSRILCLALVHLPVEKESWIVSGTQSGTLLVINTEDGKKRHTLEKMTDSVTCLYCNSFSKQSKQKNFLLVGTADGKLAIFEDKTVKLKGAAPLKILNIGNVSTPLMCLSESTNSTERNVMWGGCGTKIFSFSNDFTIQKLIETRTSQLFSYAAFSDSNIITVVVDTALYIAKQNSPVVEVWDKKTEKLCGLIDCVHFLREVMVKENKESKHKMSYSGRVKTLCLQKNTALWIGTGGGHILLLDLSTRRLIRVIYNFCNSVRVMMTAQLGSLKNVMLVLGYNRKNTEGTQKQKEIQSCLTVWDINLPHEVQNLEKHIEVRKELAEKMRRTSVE

For `c1ccc2c(-c3ccnc(N4CCN(CCCN5CCOCC5)CC4)c3)n[nH]c2c1` [Example 53], the IC50 under setting [1] is 0.018 µM. Regarding `COCC(C)Oc1ccc2[nH]nc(-c3ccnc(N4CCOCC4)c3)c2c1` (stereo not drawn) [Example 305], the IC50 under setting [2] stood at 0.0054 µM. In the case of `Cc1ncc(N2CCN(c3cc(-c4n[nH]c5ccc(OC(C)C)cc45)ccn3)CC2)s1` [Example 206], the IC50 under setting [3] came out at 0.0105 µM.

With `CC(C)Oc1ccc2[nH]nc(-c3ccnc(N4CCN(c5ncccn5)CC4)c3)c2c1` [Example 204], under setting [3], the IC50 was 0.0079 µM. Same read-out and setting: as for `CC(C)Oc1ccc2[nH]nc(-c3ccnc(N4CCN(c5ncc6ccccc6n5)CC4)c3)c2c1` [Example 212], the figure is 0.0706 µM. On to `CC(C)Oc1ccc2[nH]nc(-c3ccnc(N4C5CCC4COC5)c3)c2c1` [Example 282], for which, under setting [1], the IC50 is 0.0077 µM. Take `CC(C)Oc1ccc2[nH]nc(-c3ccnc(N4CCn5nc(C6CC6)nc5C4)c3)c2c1` [Example 214]: under setting [3], the IC50 is 0.0154 µM. Consider `OCc1cc2c(-c3ccnc(N4CCOCC4)c3)n[nH]c2cc1F` [Example 347], for which, under setting [2], the IC50 is 0.038 µM. In the case of `CCOc1ccc2[nH]nc(-c3ccnc(N4CCC(n5cccn5)C4)c3)c2c1` (stereo not drawn) [Example 222], under setting [1], the IC50 is 0.0093 µM. On the same count and under the same terms, as for `CC(C)Oc1ccc2[nH]nc(-c3ccnc(NC4CC4)c3)c2c1` [Example 137], the figure is 0.0243 µM; as for `CCOc1ccc2[nH]nc(-c3ccnc(N4C5CCCC4CC5)c3)c2c1` [Example 228], 0.0489 µM. For the compound `COc1ncnc(C)c1-c1ccc2[nH]nc(-c3ccnc(N4CCOCC4)c3)c2c1` [Ex 331], under setting [2], the IC50 was 0.059 µM. `CC(C)(O)COc1ccc2[nH]nc(-c3ccnc(N4CCOCC4)c3)c2c1` [Example 348]: the IC50 under setting [2] came to 0.014 µM. Consider `CC(C)Oc1ccc2[nH]nc(-c3ccnc(N4CCCS(=O)(=O)CC4)c3)c2c1` [Example 188], for which the IC50 under setting [3] was 0.0214 µM. On to `Cc1ccc2[nH]nc(-c3ccnc(N4CCOCC4)c3)c2c1` [Example 124], for which the IC50 under setting [2] is 0.0096 µM.

Regarding `CC(C)Oc1ccc2[nH]nc(-c3ccnc(N4CCC(F)(F)CC4)c3)c2c1` [Example 287], under setting [2], the IC50 was 0.014 µM.

For the compound `CC(C)Oc1ccc2[nH]nc(-c3ccnc(N4CCN(CC5CC5)CC4)c3)c2c1` [Example 211], the IC50 under setting [3] stood at 0.0062 µM.

For `OC[C@H]1CCN(c2cc(-c3n[nH]c4ccc(OC(F)(F)F)cc34)ccn2)C1` [Example 248], under setting [1], the IC50 stood at 0.096 µM. As to `CC(C)Oc1ccc2[nH]nc(-c3ccnc(N4CCN(C(=O)C5CC5)C(C)C4)c3)c2c1` (stereo not drawn) [Example 386], the IC50 under setting [2] was 0.0028 µM.

With `CN1CCN(c2cc(-c3n[nH]c4ccccc34)ccn2)CC1` [Example 8], the IC50 under setting [1] came to 0.042 µM.

Consider `CC(C)Oc1ccc2[nH]nc(-c3ccnc(NS(=O)(=O)C4CC4)c3)c2c1` [Example 259], for which the IC50 under setting [2] came out at 0.0632 µM. For `CC(C)Oc1ccc2[nH]nc(-c3ccnc(NC(=O)CCc4cnn(C)c4)c3)c2c1` [Example 162], the IC50 under setting [1] is 0.0272 µM. As for `CC(C)Oc1ccc2[nH]nc(-c3ccnc(N4CCCC4=O)c3)c2c1` [Example 302], the IC50 under setting [2] was 0.024 µM. On the same count and under the same terms, as for `OCCc1cc2c(-c3ccnc(N4CCOCC4)c3)n[nH]c2cc1F` [Example 349], the figure is 0.027 µM; as for `OCCc1ccc2[nH]nc(-c3ccnc(N4CCOCC4)c3)c2c1` [Example 333], 0.03 µM.

Regarding `c1ccc(COc2ccnc(-c3ccc4[nH]nc(-c5ccnc(N6CCOCC6)c5)c4c3)n2)cc1` [Example 101], under setting [1], the IC50 came out at 0.182 µM. For `CC(C)Oc1ccc2[nH]nc(-c3ccnc(NCC4CC4)c3)c2c1` [Example 134], the IC50 under setting [1] came out at 0.002 µM.

Take `Fc1ccc2[nH]nc(-c3ccnc(N4CCOCC4)c3)c2c1` [Example 391]: under setting [2], the IC50 is 0.061 µM.

For the compound `CC(C)Oc1ccc2[nH]nc(-c3ccnc(N4CC(F)(F)C4)c3)c2c1` [Example 213], the IC50 under setting [3] amounted to 0.0167 µM.

Turning to `CCOc1ccc2[nH]nc(-c3ccnc(N4CCN(C)CC4)c3)c2c1` [Example 362], the IC50 under setting [2] was 0.01 µM.

With `CN1CCC2(CCN(c3cc(-c4n[nH]c5ccccc45)ccn3)C2)C1` (stereo not drawn) [Example 34], the IC50 under setting [1] stood at 0.022 µM. As for `Cn1cc(-c2ccc3[nH]nc(-c4ccnc(N5CCCC5)c4)c3c2)cn1` [Example 267], the IC50 under setting [2] is 0.0029 µM. On to `CC(C)Oc1ccc2[nH]nc(-c3ccnc(N4CCC(n5cnnc5)CC4)c3)c2c1` [Example 194], for which, under setting [3], the IC50 was 0.0044 µM.

Take `Cn1cncc1-c1ccc2[nH]nc(-c3ccnc(N4CCOCC4)c3)c2c1` [Example 313]: the IC50 under setting [2] was less than 0.0006 µM. Regarding `COC1CN(Cc2ccc3[nH]nc(-c4ccnc(N5CCOCC5)c4)c3c2)C1` [Example 91], the IC50 under setting [1] turned out to be 0.161 µM.

For `CC1CN(c2cc(-c3n[nH]c4ccccc34)ccn2)CC(C)O1` (stereo not drawn) [Example 31], under setting [1], the IC50 amounted to 0.012 µM.

In the case of `FC(F)(F)Oc1ccc2[nH]nc(-c3ccnc(N4CCN(n5cccn5)CC4)c3)c2c1` [Example 239], the IC50 under setting [1] came out at 0.233 µM. As to `COC1CN(c2cc(-c3n[nH]c4ccccc34)ccn2)C1` [Example 67], the IC50 under setting [1] was found to be 0.031 µM. Regarding `Cn1cc(-c2cc3c(-c4ccnc(N5CCOCC5)c4)n[nH]c3cc2F)cn1` [Ex 352], the IC50 under setting [2] was found to be 0.012 µM.

With `CNCc1ccc2[nH]nc(-c3ccnc(N4CCOCC4)c3)c2c1` [Example 90], under setting [1], the IC50 is 0.302 µM. Take `Cc1nnc(C2CCN(c3cc(-c4n[nH]c5ccc(OC(C)C)cc45)ccn3)CC2)o1` [Example 215]: the IC50 under setting [3] was found to be 0.006 µM. As for `O=C1CCCC2(CCN(c3cc(-c4n[nH]c5ccccc45)ccn3)CC2)N1` [Example 61], under setting [1], the IC50 worked out at 0.014 µM.

In the case of `COC1CN(c2cc(-c3n[nH]c4ccc(OC(F)(F)F)cc34)ccn2)C1` [Example 246], the IC50 under setting [1] amounted to 0.289 µM.

As for `CC(C)Oc1ccc2[nH]nc(-c3ccnc(NC(=O)c4ccno4)c3)c2c1` [Example 142], the IC50 under setting [1] is 0.0214 µM. Consider `Oc1ccc2[nH]nc(-c3ccnc(N4C5CCC4COC5)c3)c2c1` [Example 398], for which the IC50 under setting [2] stood at 0.069 µM. In the case of `Cc1nnc(CN(C)c2cc(-c3n[nH]c4ccc(OC(C)C)cc34)ccn2)o1` [Example 192], the IC50 under setting [3] worked out at 0.0253 µM. For `Cn1cc(-c2ccc3[nH]nc(-c4ccnc(N5CCN(CCO)CC5)c4)c3c2)cn1` [Example 265], the IC50 under setting [2] was 0.0017 µM.

With `FC(F)(F)Oc1ccc2[nH]nc(-c3ccnc(N4CCCC4)c3)c2c1` [Example 233], the IC50 under setting [1] came to 0.13 µM. Same read-out and setting: as for `COC1CCCN(c2cc(-c3n[nH]c4ccc(OC(C)C)cc34)ccn2)C1` (stereo not drawn) [Example 138], the figure is 0.0114 µM. Take `CCOc1ccc2[nH]nc(-c3ccnc(N4CCS(=O)(=O)CC4)c3)c2c1` [Example 298]: the IC50 under setting [2] was 0.051 µM. On the same count and under the same terms, as for `COc1ccc2[nH]nc(-c3ccnc(N4CCOCC4)c3)c2c1` [Example 79], the figure is 0.0074 µM. `O=C1CCN(c2cc(-c3n[nH]c4ccccc34)ccn2)CC1` [Example 76]: the IC50 under setting [2] is 0.045 µM. Take `c1cc(-c2n[nH]c3ccc(C4CC4)cc23)cc(N2CCOCC2)n1` [Example 387]: the IC50 under setting [2] came to 0.006 µM. Consider `CC(C)Oc1ccc2[nH]nc(-c3ccnc(NC(=O)c4cnc(C(C)C)nc4)c3)c2c1` [Example 147], for which the IC50 under setting [1] amounted to 0.0708 µM. For the compound `Cn1cc(-c2ccc3[nH]nc(-c4ccnc(N5CCN(c6ccncn6)CC5)c4)c3c2)cn1` [Example 277], the IC50 under setting [2] is 0.0021 µM. `FC1(F)CCN(c2cc(-c3n[nH]c4ccc(OC(F)(F)F)cc34)ccn2)CC1` [Example 243]: under setting [1], the IC50 is 1.06 µM. As for `COc1ccc(-c2ccc3[nH]nc(-c4ccnc(N5CCOCC5)c4)c3c2)c(OC)n1` [Example 328], under setting [2], the IC50 came out at 0.189 µM.
